Test results: patent US20250214951A1, “3-PHENYLISOXAZOLE DERIVATIVE, AND PHARMACEUTICAL COMPOSITION FOR PREVENTING OR TREATING EYE DISEASE, CONTAINING SAME AS ACTIVE INGREDIENT” (VASTHERA CO., LTD., priority 2022, published 2025)

Assays:
[1] = tested on: A2E-BDP present in human retinal pigment epithelial cells (ARPE-19); experiment: Screening of ability to remove A2E-fluorescent labeling substance (A2E-BDP), lysate fluorescence; type: cell-based; details: ARPE-19, 24 h, ARPE-19 loaded with 10 μM A2E-BDP 24 h, test compound 50 μM once, fluorescence ex 485/em 535 nm, read-out: Capacity (%) to remove A2E-BDP at 50 μM
Protocol: (§1) The human retinal pigment epithelial cell line (ARPE-19) used in the experiment was provided by ATCC (American Type Culture Collection). The ARPE-19 cell line was cultured in DMEM medium containing 10% FBS. After culture, the cells were dispensed into 96-well plates at a concentration of 4×10^3 cells/well and cultured for 24 hours. The ARPE-19 cell line was treated with A2E-fluorescent labeling substance (A2E-BDP) at a concentration of 10 μM for 24 hours to induce the accumulation of A2E-BDP in the ARPE-19 cell line.
(§2) In order to evaluate the intracellular A2E removal ability of the compound of the present invention, an easily detectable A2E-fluorescent labeling substance (A2E-BDP) was used. The ARPE-19 cells prepared by the above method were treated with each test compound at a concentration of 50 μM once, and then cultured for 24 hours. The cells were lysed by adding a cell lysis buffer containing a protease inhibitor (50 mM Tris-chloride, pH 8.0, 150 mM sodium chloride, 1% NP-40, 1% sodium deoxycholate, 1% sodium dodecyl sulfate, and 2 mM ethylenediamine tetraacetic acid) to each 96-well. The prepared cell lysate was transferred to a white 96-well plate, and the fluorescence intensity was measured using a fluorescence microplate reader (VICTOR™ X3, Perkin Elmer, USA) (excitation 485 nm, emission 535 nm).

[2] = tested on: A2E-BDP in ARPE-19 cells; experiment: A2E-BDP removal ability by concentration of other example compounds; type: cell-based, human; details: indicated concentrations; FIG. 13
Protocol: as §1, §2
The A2E-fluorescent labeling substance (A2E-BDP) removal ability was evaluated according to Experimental Example 1 (except that the test compound was treated at the indicated concentration).

[3] = tested on: p62 protein phosphorylated at serine 349 (p-p62 (S349)); experiment: Autophagy activation by increase of p-p62 (S349), Western immunoblotting; type: cell-based, human; details: indicated concentrations; FIG. 14
Protocol: The cells were treated with the test compounds at the indicated concentrations, and the autophagy activation effect through the increase of p62 protein (p-p62 (S349)) phosphorylated at serine 349 residue was measured by Western immunoblotting using an anti-p-p62 antibody, and the results are shown in FIG. 14. The increase in the intracellular P-p62 ([…]) level is one of the major indicators of autophagy activation.

[4] = tested on: LC3-II; experiment: LC3-II production capacity at 10 μM (Table 4); type: cell-based; details: Homo sapiens, 12 h
Protocol: (§3) ARPE-19 was dispensed into a 6-well plate at a concentration of 1×10^5 cells/well and cultured for 24 hours. Then, cells were treated with example 17 compound of the present invention at concentrations of 10, 25, and 50 μM for 12 hours. Then, a cell lysis buffer containing a protease inhibitor was added to prepare a cell lysate. The LC3-II level was measured by Western immunoblotting using an anti-LC3-II antibody (Cell Signaling Technology, MA, USA). As an internal control, an antibody against β-actin (Cell Signaling Technology) was used and measured by Western immunoblotting in the same manner as above, and is shown in FIG. 6 (upper graph).
(§4) The autophagy activation effect of example compounds expected to have autophagy activation ability and low cytotoxicity among the example compounds in Table 2 above in human retinal pigment epithelial cells was evaluated according to Experimental Example 7. That is, the autophagy activation effect through the increase of LC3-II was evaluated in a concentration-dependent manner, and the results are shown in FIGS. 15 and 16.

[5] = tested on: LC3-II; experiment: Concentration-dependent autophagy activation through increase of LC3-II (FIGS. 15 and 16); type: cell-based, human
Protocol: as §3, §4

SMILES | inhibition at 50 µM [1] [%] | further results
CCCc1ccc(OC)c(-c2cc(CN3CCN(C(=O)OC(C)(C)C)CC3)on2)c1 [Example 26, tert-butyl 4-((3-(2-methoxy-5-propylphenyl)isoxazole-5-yl)methyl)piperazine-1-carboxylate] | ≥ 60 | A2E-BDP removal ability by concentration (amount of A2E) [2]: concentration-dependent decrease in the amount of A2E; autophagy activation through increase of p-p62 (S349) [3]: activated autophagy in a concentration-dependent manner
OCc1cc(-c2cc(Br)ccc2O)no1 [Example 8, 4-bromo-2-(5-(hydroxymethyl)isoxazole-3-yl)phenol] | -15.3 | –
C=CCc1ccc(OC)c(-c2cc(CN3CCN(CC=C)CC3)on2)c1 [Example 22, 3-(5-allyl-2-methoxyphenyl)-5-((4-allylpiperazine-1-yl)methyl)isoxazole] | 47.4 | –
CCCc1ccc(O)c(-c2cc(CO)on2)c1 [Example 14, 2-(5-(hydroxymethyl)isoxazole-3-yl)-4-propylphenol] | 35.2 | –
CCCc1ccc(OC)c(-c2cc(CN3CCNCC3)on2)c1 [Example 30, 3-(2-methoxy-5-propylphenyl)-5-(piperazine-1-ylmethyl)isoxazole] | – | fold induction at 10 µM [4]: 2.3; autophagy activation effect through the increase of LC3-II [5]: excellent autophagy activation effects
COc1ccc(Br)cc1-c1cc(CN2CCNCC2)on1 [Example 28, 3-(5-bromo-2-methoxyphenyl)-5-(piperazine-1-ylmethyl)isoxazole] | – | fold induction at 10 µM [4]: 4.6; autophagy activation effect through the increase of LC3-II [5]: excellent autophagy activation effects
COc1ccc(C(C)C)cc1-c1cc(CN2CCNCC2)on1 [Example 47, 3-(5-isopropyl-2-methoxyphenyl)-5-(piperazine-1-ylmethyl)isoxazole] | – | fold induction at 10 µM [4]: 2.7; autophagy activation effect through the increase of LC3-II [5]: excellent autophagy activation effects
C=CCc1ccc(OC)c(-c2cc(COCC(=O)OCC)on2)c1 [Example 19, ethyl 2-((3-(5-allyl-2-methoxyphenyl)isoxazole-5-yl)methoxy)acetate] | 37.4 | –
C=CCc1ccc(OC)c(-c2cc(COCc3ccccc3)on2)c1 [Example 18, 3-(5-allyl-2-methoxyphenyl)-5-((benzyloxy)methyl)isoxazole] | ≥ 60 | A2E-BDP removal ability by concentration (amount of A2E) [2]: concentration-dependent decrease in the amount of A2E; autophagy activation through increase of p-p62 (S349) [3]: activated autophagy in a concentration-dependent manner
CCCc1cc(-c2cc(Br)ccc2OC)no1 [Example 1, 3-(5-bromo-2-methoxyphenyl)-5-propylisoxazole] | 20.8 | –
COCc1cc(-c2cc(Br)ccc2OC)no1 [Example 13, 3-(5-bromo-2-methoxyphenyl)-5-(methoxymethyl)isoxazole] | 31 | –
COc1ccc(Br)cc1-c1cc(CO)on1 [Example 7, (3-(5-bromo-2-methoxyphenyl)isoxazole-5-yl)methanol] | 16.6 | –
C=CCc1ccc(OC)c(-c2cc(CN3CCN(CC(=O)OCC)CC3)on2)c1 [Example 24, ethyl 2-(4-((3-(5-allyl-2-methoxyphenyl)isoxazole-5-yl)methyl)piperazine-1-yl)acetate] | 38.5 | –
COc1ccc(Br)cc1-c1cc(COCc2ccccc2)on1 [Example 11, 5-((benzyloxy)methyl)-3-(5-bromo-2-methoxyphenyl)isoxazole] | ≥ 60 | A2E-BDP removal ability by concentration (amount of A2E) [2]: concentration-dependent decrease in the amount of A2E; autophagy activation through increase of p-p62 (S349) [3]: activated autophagy in a concentration-dependent manner
CCCc1ccc(OC)c(-c2cc(CN3CCN(C)CC3)on2)c1 [Example 42, 3-(2-methoxy-5-propylphenyl)-5-((4-methylpiperazine-1-yl)methyl)isoxazole] | – | fold induction at 10 µM [4]: 2.3; autophagy activation effect through the increase of LC3-II [5]: excellent autophagy activation effects
CCCc1cc(-c2cc(CN3CCNCC3)on2)c(OC)cc1F [Example 58, 3-(4-fluoro-2-methoxy-5-propylphenyl)-5-(piperazine-1-ylmethyl)isoxazole] | – | fold induction at 10 µM [4]: 3.2; autophagy activation effect through the increase of LC3-II [5]: excellent autophagy activation effects
C=CCc1ccc(O)c(-c2cc(CCC)on2)c1 [Example 5, 4-allyl-2-(5-propylisoxazole-3-yl)phenol] | 26.9 | –

SMILES | inhibition at 50 µM [1] [%] | further results
CCCc1ccc(OC)c(-c2cc(CCC)on2)c1 [Example 3, 3-(2-methoxy-5-propylphenyl)-5-propylisoxazole] | 0.6 | –
C=CCc1ccc(OC)c(-c2cc(CN3CCN(C)CC3)on2)c1 [Example 41, 3-(5-allyl-2-methoxyphenyl)-5-((4-methylpiperazine-1-yl)methyl)isoxazole] | – | fold induction at 10 µM [4]: 2.3; autophagy activation effect through the increase of LC3-II [5]: excellent autophagy activation effects
C=CCc1ccc(OC)c(-c2cc(CN3CCN(Cc4ccccc4)CC3)on2)c1 [Example 23, 3-(5-allyl-2-methoxyphenyl)-5-((4-benzylpiperazine-1-yl)methyl)isoxazole] | 45.5 | –
CCCc1ccc(OC)c(-c2cc(CO)on2)c1 [Example 10, (3-(2-methoxy-5-propylphenyl)isoxazole-5-yl)methanol] | 7.7 | –
CCCc1ccc(OC)c(-c2cc(COC)on2)c1 [Example 20, 3-(2-methoxy-5-propylphenyl)-5-(methoxymethyl)isoxazole] | 17.2 | –
COc1ccc(C(F)(F)F)cc1-c1cc(CN2CCNCC2)on1 [Example 34, 3-(2-methoxy-5-(trifluoromethyl)phenyl)-5-(piperazine-1-ylmethyl)isoxazole] | – | fold induction at 10 µM [4]: 2.5; autophagy activation effect through the increase of LC3-II [5]: excellent autophagy activation effects
CCCc1cc(-c2cc(CN3CCN(C)CC3)on2)c(OC)cc1F [Example 59, 3-(4-fluoro-2-methoxy-5-propylphenyl)-5-((4-methylpiperazine-1-yl)methyl)isoxazole] | – | fold induction at 10 µM [4]: 3.1; autophagy activation effect through the increase of LC3-II [5]: excellent autophagy activation effects
C=CCOCc1cc(-c2cc(Br)ccc2OC)no1 [Example 9, 5-((allyloxy)methyl)-3-(5-bromo-2-methoxyphenyl)isoxazole] | 26.2 | –
CCCc1ccc(O)c(-c2cc(CCC)on2)c1 [Example 6, 4-propyl-2-(5-propylisoxazole-3-yl)phenol] | 24 | –
C=CCc1ccc(O)c(-c2cc(CO)on2)c1 [Example 16, 4-allyl-2-(5-(hydroxymethyl)isoxazole-3-yl)phenol] | 49.9 | –
CCCc1cc(-c2cc(Br)ccc2O)no1 [Example 2, 4-bromo-2-(5-propylisoxazole-3-yl)phenol] | 28.2 | –
C=CCc1ccc(OC)c(-c2cc(CO)on2)c1 [Example 15, (3-(5-allyl-2-methoxyphenyl)isoxazole-5-yl)methanol] | 48.1 | –
C=CCc1ccc(OC)c(-c2cc(CCC)on2)c1 [Example 4, 3-(5-allyl-2-methoxyphenyl)-5-propylisoxazole] | 24.7 | –
C=CCc1ccc(OC)c(-c2cc(CN3CCN(C(=O)OC(C)(C)C)CC3)on2)c1 [Example 25, tert-butyl 4-((3-(5-allyl-2-methoxyphenyl)isoxazole-5-yl)methyl)piperazine-1-carboxylate] | 45.9 | –
CCOC(=O)COCc1cc(-c2cc(Br)ccc2OC)no1 [Example 12, ethyl 2-((3-(5-bromo-2-methoxyphenyl)isoxazole-5-yl)methoxy)acetate] | 21.7 | –
CCCc1ccc(OC(F)(F)F)c(-c2cc(CN3CCN(C)CC3)on2)c1 [Example 60, 5-((4-methylpiperazine-1-yl)methyl)-3-(5-propyl-2-(trifluoromethoxy)phenyl)isoxazole] | – | fold induction at 10 µM [4]: 3.1; autophagy activation effect through the increase of LC3-II [5]: excellent autophagy activation effects
